Data published in ChEMBL document CHEMBL1201862, “PubChem BioAssay data set” (2004).
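Where inhibition never reached the appropriate level, the endpoint shown equals the highest concentration tested. Otherwise, values were interpolated linearly from a five-concentration, 48-hour dose response in 96-well plates. GI50 marks 50% less growth.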 The source made the active and inactive calls. Cut-off read from the data, not from the text of the source: active = GI50 up to about 1.1 µM and inactive = higher.

Key:
Experiment in all cases: DTP human tumour cell line panel, 48 h
A549 = tested on: A549
CAKI-1 = tested on: CAKI-1
COLO 205 = tested on: COLO 205
EKVX = tested on: EKVX
HCC 2998 = tested on: HCC 2998
HL-60 = tested on: HL-60
HOP-92 = tested on: HOP-92
HT-29 = tested on: HT-29
IGROV-1 = tested on: IGROV-1
K562 = tested on: K562
M14 = tested on: M14
NCI-H226 = tested on: NCI-H226
OVCAR-4 = tested on: OVCAR-4
RPMI-8226 = tested on: RPMI-8226
SK-MEL-5 = tested on: SK-MEL-5
SN12C = tested on: SN12C
SNB-19 = tested on: SNB-19
SW-620 = tested on: SW-620
TK-10 = tested on: TK-10
UACC-257 = tested on: UACC-257

Measured: GI50

COc1ccc2c(c1)CC1Cc3ccccc3CCN1C2 (stereo not given)
inactive: A549 28.8 µM | CAKI-1 20.3 µM | COLO 205 35.5 µM | EKVX 59 µM | HCC 2998 35.2 µM | HL-60 53.1 µM | HOP-92 27.7 µM | HT-29 32.4 µM | IGROV-1 38 µM | K562 56.2 µM | M14 23.6 µM | NCI-H226 89.1 µM | OVCAR-4 > 100 µM | RPMI-8226 39.5 µM | SK-MEL-5 20.2 µM | SN12C > 100 µM | SNB-19 55 µM | SW-620 76 µM | TK-10 24.5 µM | UACC-257 52.8 µM
